Test results taken from patent US20140057915A1, “KINASE INHIBITORS” (TOPIVERT PHARMA LIMITED, priority 2012, published 2014).

Tests used:
[1] = test system: ICAM-1 expression, BEAS2B cells; assay: Poly I:C-induced ICAM-1 expression in BEAS2B cells; format: cell-based; settings: Homo sapiens, BEAS-2B; read-out: Poly IC induced ICAM1 in BEAS2B, IC50
Experimental: (f) Poly I:C-Induced ICAM-1 Expression in BEAS2B Cells
Poly I:C is used in these studies as a simple, RNA virus mimic. Poly I:C-Oligofectamine mixture (1 μg/mL Poly I:C, ±2% Oligofectamine, 25 μL; Invivogen Ltd., San Diego, Calif., and Invitrogen, Carlsbad, Calif., respectively) is transfected into BEAS2B cells (human bronchial epithelial cells, ATCC). Cells are pre-incubated with final concentrations of test compounds for 2 hr and the level of ICAM1 expression on the cell surface is determined by cell-based ELISA. At a time point 18 hr after poly I:C transfection, cells are fixed with 4% formaldehyde in PBS (100 μL) and then endogenous peroxidase is quenched by the addition of washing buffer (100 μL, 0.05% Tween in PBS: PBS-Tween) containing 0.1% sodium azide and 1% hydrogen peroxide. Cells are washed with wash-buffer (3×200 μL). and after blocking the wells with 5% milk in PBS-Tween (100 μL) for 1 hr, the cells are incubated with anti-human ICAM-1 antibody (50 μL; Cell Signalling Technology, Danvers, Mass.) in 1% BSA PBS overnight at 4° C.
The cells are washed with PBS-Tween (3×200 μL) and incubated with the secondary antibody (100 μL; HRP-conjugated anti-rabbit IgG, Dako Ltd., Glostrup, Denmark). […] The ICAM-1 signal is detected by reading the absorbance at 450 nm against a reference wavelength of 655 nm using a spectrophotometer. The cells are then washed with PBS-Tween (3×200 μL) and total cell numbers in each well are determined by reading absorbance at 595 nm after Crystal Violet staining (50 μL of a 2% solution in PBS) and elution by 1% SDS solution (100 μL) in distilled water. The measured OD 450-655 readings are corrected for cell number by dividing with the OD595 reading in each well. The inhibition of ICAM-1 expression is calculated at each concentration of test compound by comparison with vehicle control.

d-U937 cells = assay: Cell viability: MTT assay; format: cell-based, human; settings: 1 μg/mL
Experimental: (l) The Effect of Test Compounds on Cell Viability: MTT Assay
Differentiated U937 cells are pre-incubated with each test compound (final concentration 1 μg/mL or 10 μg/mL in 200 μL media indicated below) under two protocols: the first for 4 hr in 5% FCS RPMI1640 media and the second in 10% FCS RPMI1640 media for 24 h. The supernatant is replaced with new media (200 μL) and MTT stock solution (10 μL, 5 mg/mL) is added to each well. After incubation for 1 hr the media are removed, DMSO (200 μL) is added to each well and the plates are shaken lightly for 1 hr prior to reading the absorbance at 550 nm. The percentage loss of cell viability is calculated for each well relative to vehicle (0.5% DMSO) treatment. Consequently an apparent increase in cell viability for drug treatment relative to vehicle is tabulated as a negative percentage.

[2] = test system: TNFα release, d-U937 cells; assay: LPS-induced TNFα release in d-U937 cells; format: cell-based; settings: Homo sapiens, dU937; relative to 10 μg/mL BIRB796; Table 4c1; read-out: LPS Induced Release of Cytokine in d-U937 Cells, TNFα REC50
Experimental: (§1) (a) LPS-Induced TNFα/IL-8 Release in d-U937Cells
U937 cells, a human monocytic cell line, are differentiated into macrophage-type cells by incubation with PMA (100 ng/mL) for 48 to 72 hr. Cells are pre-incubated with final concentrations of test compound for 2 hr and are then stimulated with LPS (0.1 μg/mL; from E. Coli: 0111:B4, Sigma) for 4 hr. The supernatant is collected for determination of TNFα and IL-8 concentrations by sandwich ELISA (Duo-set, R&D systems). […] The relative 50% effective concentration (REC50) is determined from the resultant concentration-response curve. The inhibition of IL-8 production is calculated at each concentration of test compound by comparison with vehicle control.

cSrc = cSrc (Homo sapiens, UniProt P12931); assay: c-Src enzyme inhibition (FRET); format: biochemical; settings: Table 4a1
Sequence of cSrc (P12931 whole entry): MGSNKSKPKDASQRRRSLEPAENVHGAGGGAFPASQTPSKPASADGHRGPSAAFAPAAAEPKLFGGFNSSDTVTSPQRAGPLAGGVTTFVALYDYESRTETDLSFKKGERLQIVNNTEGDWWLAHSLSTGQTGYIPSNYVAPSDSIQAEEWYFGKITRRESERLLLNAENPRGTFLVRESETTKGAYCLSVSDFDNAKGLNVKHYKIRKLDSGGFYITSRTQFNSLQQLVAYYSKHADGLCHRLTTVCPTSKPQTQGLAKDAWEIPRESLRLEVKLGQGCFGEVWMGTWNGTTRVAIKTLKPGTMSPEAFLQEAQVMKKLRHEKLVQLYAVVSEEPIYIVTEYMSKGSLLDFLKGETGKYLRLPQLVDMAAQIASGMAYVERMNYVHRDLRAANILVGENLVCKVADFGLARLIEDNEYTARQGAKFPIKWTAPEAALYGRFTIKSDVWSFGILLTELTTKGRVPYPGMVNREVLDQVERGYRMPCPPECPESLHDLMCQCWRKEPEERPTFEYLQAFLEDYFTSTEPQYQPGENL
Experimental: (§2) The enzyme inhibitory activities of compounds disclosed herein are determined by FRET using synthetic peptides labelled with both donor and acceptor fluorophores (Z-LYTE, Invitrogen Ltd., Paisley, UK).
(§3) The relevant enzyme (3000 ng/mL or 2000 ng/mL respectively, 2.5 μL) is incubated with the test compound (either 4 μg/mL, 0.4 μg/mL, 0.04 μg/mL, or 0.004 μg/mL, 2.5 μL each) for 2 hr at RT. The FRET peptides (8 μM, 2.5 μL), and appropriate ATP solutions (2.5 μL, 800 μM for c-Src, and 60 μM ATP for Syk) are then added to the enzymes/compound mixtures and incubated for 1 hr. Development reagent (protease, 5 μL) is added for 1 hr prior to detection in a fluorescence microplate reader (Varioskan® Flash, ThermoFisher Scientific).
(§4) In all cases, the site-specific protease cleaves non-phosphorylated peptide only and eliminates the FRET signal. Phosphorylation levels of each reaction are calculated using the ratio of coumarin emission (donor) over fluorescein emission (acceptor), for which high ratios indicate high phosphorylation and low ratios indicate low phosphorylation levels.

GSK3α = GSK3α (Homo sapiens, UniProt P49840); assay: GSK 3α enzyme inhibition (FRET), Method 1; format: biochemical; settings: Table 4a1
Sequence of GSK3α (P49840 whole entry): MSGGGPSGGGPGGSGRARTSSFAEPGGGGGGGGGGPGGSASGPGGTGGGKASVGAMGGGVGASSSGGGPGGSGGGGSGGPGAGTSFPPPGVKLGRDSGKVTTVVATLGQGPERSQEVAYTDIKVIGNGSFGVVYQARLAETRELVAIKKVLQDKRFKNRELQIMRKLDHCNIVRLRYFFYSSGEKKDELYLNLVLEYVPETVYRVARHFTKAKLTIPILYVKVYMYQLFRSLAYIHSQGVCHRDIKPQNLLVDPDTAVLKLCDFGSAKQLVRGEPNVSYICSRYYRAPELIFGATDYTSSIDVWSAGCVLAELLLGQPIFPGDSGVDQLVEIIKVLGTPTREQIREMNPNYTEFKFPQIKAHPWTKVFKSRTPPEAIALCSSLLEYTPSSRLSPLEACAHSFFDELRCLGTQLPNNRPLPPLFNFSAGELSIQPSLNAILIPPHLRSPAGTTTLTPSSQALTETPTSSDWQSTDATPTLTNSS
Experimental: as §2
The following two assay variants are used for determination of GSK 3a inhibition.
The inhibitory activities of compounds of the invention against the GSK 3a enzyme isoform (Invitrogen), are evaluated by determining the level of activation/phosphorylation of the target peptide. The GSK3-α protein (500 ng/mL, 2.5 μL) is mixed with the test compound (2.5 μL at either 4 μg/mL, 0.4 μg/mL, 0.04 μg/mL, or 0.004 μg/mL) for 2 hr at RT. The FRET peptide (8 μM, 2.5 μL), which is a phosphorylation target for GSK3α, and ATP (40 μM, 2.5 μL) are then added to the enzyme/compound mixture and the resulting mixture incubated for 1 hr. Development reagent (protease, 5 μL) is added for 1 hr prior to detection in a fluorescence microplate reader (Varioskan® Flash, ThermoFisher Scientific).
as §4

Syk = Syk (Homo sapiens, UniProt P43405); assay: Syk enzyme inhibition (FRET); format: biochemical; settings: Table 4a1
Experimental: as §2, §3, §4

[3] = test system: IL-8 release, d-U937 cells; assay: LPS-induced IL-8 release in d-U937 cells; format: cell-based; settings: Homo sapiens, dU937; Table 4c1; read-out: LPS Induced Release of Cytokine in d-U937 Cells, IL-8 IC50
Experimental: as §1
U937 cells, a human monocytic cell line, are differentiated into macrophage-type cells by incubation with PMA (100 ng/mL) for 48 to 72 hr. Cells are pre-incubated with final concentrations of test compound for 2 hr and are then stimulated with LPS (0.1 μg/mL; from E. Coli: 0111:B4, Sigma) for 4 hr. […] The relative 50% effective concentration (REC50) is determined from the resultant concentration-response curve.

Row | EC50 [2] | IC50 (cSrc) | IC50 (GSK3α) | IC50 (Syk) | IC50 [3] | Compound | IC50 [1] | Cell viability at time point in d-U937 cells, 4 h (d-U937 cells) | Cell viability at time point in d-U937 cells, 24 h (d-U937 cells)
1 | 0.6 nM | 1 nM | 286 nM | 11 nM | 1.6 nM | Cc1ccc(-n2nc(C(C)(C)C)cc2NC(=O)Nc2ccc(Oc3ccnc(Nc4cccc(C(=O)NCCN5CCOCC5)c4)n3)c3ccccc23)cc1 [Example 3, 3-((4-((4-(3-(3-(tert-Butyl)-1-(p-tolyl)-1H-pyrazol-5-yl)ureido)naphthalen-1-yl)oxy)pyrimidin-2-yl)amino)-N-(2-morpholinoethyl)benzamide] | 0.7 nM | −ve (−ve and +ve indicate that the value is below and above respectively, the no significant effect threshold, defined as 30% inhibition at 1 μg/mL at the time point indicated) | −ve (−ve and +ve indicate that the value is below and above respectively, the no significant effect threshold, defined as 30% inhibition at 1 μg/mL at the time point indicated)
2 | 0.7 nM | 49 nM | > 14300 nM | 124 nM | 6.6 nM | COc1cc(C(=O)NCCO)ccc1Nc1nccc(Oc2ccc(NC(=O)Nc3cc(C(C)(C)C)nn3-c3ccc(C)cc3)c3ccccc23)n1 [Example 4, 4-((4-((4-(3-(3-(tert-Butyl)-1-(p-tolyl)-1H-pyrazol-5-yl)ureido)naphthalen-1-yl)oxy)pyrimidin-2-yl)amino)-N-(2-hydroxyethyl)-3-methoxybenzamide] | 4.6 nM | −ve (−ve and +ve indicate that the value is below and above respectively, the no significant effect threshold, defined as 30% inhibition at 1 μg/mL at the time point indicated) | −ve (−ve and +ve indicate that the value is below and above respectively, the no significant effect threshold, defined as 30% inhibition at 1 μg/mL at the time point indicated)
3 | 0.2 nM | 2 nM | 634 nM | 5 nM | 1.9 nM | COc1ccc(-n2nc(C(C)C)cc2NC(=O)Nc2ccc(Oc3ccnc(Nc4cc(OC)cc(C(=O)NCCN(C)C)c4)n3)c3ccccc23)cc1 [Example 6] | 1.2 nM | −ve (−ve and +ve indicate that the value is below and above respectively, the no significant effect threshold, defined as 30% inhibition at 1 μg/mL at the time point indicated) | −ve (−ve and +ve indicate that the value is below and above respectively, the no significant effect threshold, defined as 30% inhibition at 1 μg/mL at the time point indicated)
4 | 1.3 nM | 2 nM | > 12900 nM | 4 nM | 1.8 nM | COc1cc(Nc2nccc(Oc3ccc(NC(=O)Nc4cc(C(C)C)nn4-c4ccc(OC)nc4)c4ccccc34)n2)cc(C(=O)NCCN2CCOCC2)c1 [Example 10, 3-((4-((4-(3-(3-Isopropyl-1-(6-methoxypyridin-3-yl)-1H-pyrazol-5-yl)ureido)naphthalen-1-yl)oxy)pyrimidin-2-yl)amino)-5-methoxy-N-(2-morpholinoethyl)benzamide] | 7.3 nM | −ve (−ve and +ve indicate that the value is below and above respectively, the no significant effect threshold, defined as 30% inhibition at 1 μg/mL at the time point indicated) | −ve (−ve and +ve indicate that the value is below and above respectively, the no significant effect threshold, defined as 30% inhibition at 1 μg/mL at the time point indicated)
5 | 1.6 nM | – | 1630 nM | > 1320 nM | 0.7 nM | COc1ccc(-n2nc(C(C)C)cc2NC(=O)Nc2ccc(Oc3ccnc(Nc4cc(C)cc(C(=O)NCCN5CCOCC5)c4)n3)c3ccccc23)cc1 [Example 45, 3-((4-((4-(3-(3-isopropyl-1-(4-methoxyphenyl)-1H-pyrazol-5-yl)ureido)naphthalen-1-yl)oxy)pyrimidin-2-yl)amino)-5-methyl-N-(2-morpholinoethyl)benzamide] | 135 nM | −ve (−ve and +ve indicate that the value is below and above respectively, the no significant effect threshold, defined as 30% inhibition at 1 μg/mL at the time point indicated) | −ve (−ve and +ve indicate that the value is below and above respectively, the no significant effect threshold, defined as 30% inhibition at 1 μg/mL at the time point indicated)

Row | Compound | EC50 [2] | IC50 (cSrc) | IC50 (GSK3α) | IC50 (Syk) | IC50 [3] | IC50 [1] | Cell viability at time point in d-U937 cells, 4 h (d-U937 cells) | Cell viability at time point in d-U937 cells, 24 h (d-U937 cells)
6 | COc1ccc(-n2nc(C(C)C)cc2NC(=O)Nc2ccc(Oc3cc(Nc4cc(OC)cc(C(=O)NCCN5CCOCC5)c4)ncn3)c3ccccc23)cc1 [Example 14, 3-((6-((4-(3-(3-isopropyl-1-(4-methoxyphenyl)-1H-pyrazol-5-yl)ureido)naphthalen-1-yl)oxy)pyrimidin-4-yl)amino)-5-methoxy-N-(2-morpholinoethyl)benzamide] | 1.2 nM | 4 nM | 355 nM | > 1300 nM | 5 nM | 3 nM | −ve (−ve and +ve indicate that the value is below and above respectively, the no significant effect threshold, defined as 30% inhibition at 1 μg/mL at the time point indicated) | +ve (−ve and +ve indicate that the value is below and above respectively, the no significant effect threshold, defined as 30% inhibition at 1 μg/mL at the time point indicated)
